Measurements published in US20100247461A1, “ANTI-INFLAMMATORY COMPLEXES” (Signum Biosciences, Inc., priority 2009, published 2010).
Like-named read-outs stand apart in the source and are kept apart here.

Key:
[1] = test system: Propionibacterium acnes (strain ATCC 6919); experiment: Inhibition of Propionibacterium acnes growth; format: cell-based
Protocol: The assay for the inhibition of growth of Propionibacterium acnes bacteria is described elsewhere (Nakatsuji et al., J Invest Dermatol, 2009, 129: 2480-2488). In brief, the strain ATCC 6919 of P. acnes (American Type Culture Collection, Manassas, Va.) was cultured on Brucella agar (R01254, Remel, Lenexa, Kans.) supplemented with 5% (v/v) defibrinated sheep blood, vitamin K (5 mg/ml, Remel, Lenexa, Kans.), and hemin (50 mg/ml, Remel, Lenexa, Kans.), under an anaerobic condition using Gas-Pak (BD, Sparks, Md.) at 37° C. A single colony was inoculated in Reinforced Clostridium Medium (Oxford, Hampshire, England) and cultured at 37° C. under the anaerobic condition. Each of the inventive complexes—AFC-Sr, AFC-Ag and AFC-Zn as well as AFC were dissolved in 100% (v/v) DMSO. Samples of each inventive complex, AFC and a solution of benzoyl peroxide (“BPO”) were then each incubated with an inoculum of P. acnes at a concentration of 1×10^6 CFU per mL in Reinforced Clostridium Medium in a 96-well microplate (100 μL per well) under anaerobic conditions for 72 hours. Samples of each were tested at final concentrations per well of 0.25 μg/mL, 0.5 μg/mL, 1.0 μg/mL, 1.95 μg/mL, 3.9 μg/mL, 7.8 μg/mL, 15.625 μg/mL, 31.25 μg/mL, 62.5 μg/mL, 125 μg/mL, 250μg/mL, and 500 μg/mL. A control well received only 5% (v /v) of DMSO in place of a sample of an inventive complex. After 72 hours incubation under anaerobic conditions, the P. acnes cultures in the 96-well microplate were mixed well and then absorbance readings at 600 nm were taken to determine bacterial growth. […] Growth curves of P. acnes determined for BPO, AFC, AFC-Sr, AFC-Ag and AFC-Zn are depicted in FIG. 3.

[2] = complex and its solutions; compared with ordinary silver salts of carboxylic acids
[3] = test system: TPA-treated mouse ears (edema, ear thickness); experiment: TPA mouse ear model of inflammation - edema inhibition; format: in vivo
Protocol: In brief, mice were sedated and their ears were treated with 1.2 μg/20 uL TPA (i.e., tetradecanoylphorbol-13-acetate). After 5 minutes, we dosed these TPA-treated ears with a single 8 μg/20 μL dose, a 2 μg/20 μL dose, or both doses, of provided complexes. After 24 hours, the mice were sacrificed and edema was measured by taking micrometer readings of each ear. […] These values were corrected for the thickness of normal, non TPA-treated mouse ears of littermate controls.

[4] = test system: TPA-treated mouse ears (erythema, Δa* redness); experiment: TPA mouse ear model of inflammation - erythema inhibition; format: in vivo; conditions: topical, 24 hours
Protocol: The protocol for measuring erythema inhibition by provided complexes was developed in-house by utilizing the CR-400 chroma meter from Konica Minolta (2). This instrument was used to measure the Δa*redness value from 6 mm biopsy punches taken 24 hours post TPA/compound treatment as described in the edema inhibition section above. […] These values were corrected for the Δa* value of non TPA-treated mouse ears of littermate controls.

[5] = test system: MPO (myeloperoxidase), neutrophil marker; experiment: TPA mouse ear model of inflammation - MPO inhibition (dermal neutrophil infiltration); format: in vivo
Protocol: Briefly, we homogenized 6mm biopsy punches taken from both compound-treated ears as well as TPA-treated and non-treated control groups. We quantitated the levels of MPO by a colorimetric reaction that was measured spectrophotometrically. The percent inhibition of neutrophil infiltration by each complex was determined by comparing the average MPO levels in the presence and absence of these compounds. The calculation for percent inhibition of MPO was determined similar to that as described for calculating the percent edema inhibition, see the Edema Inhibition protocol, supra.

neutrophils = experiment: Inhibition of oxidative burst from neutrophils (fMLP-induced superoxide release); format: cell-based; conditions: reduction of superoxide formation, fMLP 0.2 μM, 0 to 100 μM compound; read-out: ED50 Respiratory Burst
Protocol: During inflammation, neutrophils produce and release superoxide ions, otherwise known as oxidative burst response, causing cytotoxicity. […] The superoxide release assay is based on published protocols (Goldstein et al. (1975). J. Clin. Invest. 56(5): 1155-63). Briefly, cells were pre-incubated for 10 min at 37° C. with a mixture of cytochrome c (75 μM final concentration), cytochalasin B (5 μg/ml) with or without superoxide dismutase (SOD) (10 μg/ml) and with or without AFC, AFC-Calcium complex, and AFC-Strontium complex (ranging from 0 to 100 μM). To initiate O2^− release, fMLP (0.2 μM) was added the cells are incubated for 10 min at 37° C. Samples were then placed on ice for 5 min and subsequently centrifuged at 3,000 rpm at 4° C. The supernatant was then analyzed by spectrophotometric measurement at 550 and 556.5 nm. The ED50 values for the reduction of superoxide formation, obtained with AFC, AFC-Calcium complex, and AFC-Strontium complex are depicted in Table 2.

[6] = test system: MPO activity (neutrophil infiltration) in P. acnes-injected ear; experiment: P. acnes-induced mouse ear model of inflammation - MPO endpoint; format: in vivo; conditions: dose of 0.4 mg/20 μL
Protocol: The methods for a model of P. acnes-inflammation are described elsewhere (Nakatsuji et al., J Invest Dermatol, 2008, 128: 2451-2457).
The protocol for inducing inflammation using P. acnes bacterial challenge on the mouse ear was slightly modified from the method described previously (Natatsuji et al., 2008). Briefly, Swiss Webster (ICR, 6-8 weeks old) mouse ears were injected with living P. acnes culture intradermally. An amount of 20 μl aliquots of living P. acnes (ATCC 6919, 3×10^6 CFU) suspended in PBS was intradermally injected in the central portion of the ear. As a control, 20 μl of PBS was injected into control animals.
To assay for inhibition of dermal neutrophil infiltration by AFC complexes, a standard method was used (see Bradley et al., J Invest Dermatol, 1982,78: 206-209; Young et al., J Invest Dermatol, 1983, 80: 48-52; De Young et al, Agents Actions, 1989, 26: 335-41; and Rao et al., Inflammation, 1993, 17: 723-41). Briefly, 6mm biopsy punches taken from both compound-treated ears as well as non-treated control ears were homogenized in 400 μl of 0.5% hexadecyltrimethylammonium bromide in 50 mM potassium phosphate buffer (pH 6.0) using the Fast Prep 24 (MP Biomedicals, Solon, Ohio). Supernatants were assayed for MPO activity using a model EL 340 96-well plate reader (BioTek Instruments, Winooski, Vt.). The percent inhibition of neutrophil infiltration by each AFC complex was determined by comparing the average MPO levels in the presence and absence of these compounds. The percent inhibition of MPO was determined by taking the average MPO activity of compound-treated ears and dividing it by the average MPO activity of 12 ears that only received the P. acnes challenge and subtracting that value from 100%. These values were corrected for the MPO activity of normal, non P. acnes-treated mouse ears of littermate controls. Summary of MPO activity ranges determined from an MPO activity assay for dexamethasone (administered at a dose of 1.6 mg/20 μL), clobetasol (administered at a dose of 0.1 mg/20 μL), salicylic acid (administered at a dose of 0.4 mg/20 μL), AFC (administered at a dose of 0.4 mg/20 μL), AFC-Strontium complex (administered at a dose of 0.4 mg/20 μL) and SFC-disodium are presented in Table 4. “+” indicates a range of 0-20%, “++” indicates a range of 20-40%, and “+++” indicates >40% inhibition.

[7] = test system: TPA-treated mouse ears (edema, ear thickness); experiment: TPA mouse ear model of inflammation - edema inhibition; format: in vivo; conditions: topical, 24 hours

| Compound | IC50 (inhibition of P. acnes growth) [1] | light and air stability [2] | ED50 for edema inhibition ([3]; TPA-treated mouse ear, topical) | decrease of edema compared with another complex or AFC alone ([3]; mouse ear inflammation assay) | % Erythema Inhibition in the Mouse Ear Inflammation Assay (4% concentration) [4] | ED50 in the MPO assay ([5]; TPA-treated mouse ear, several concentrations, inhibitory activity curves) | ED50 value for inhibiting neutrophil infiltration ([5]; TPA-treated mouse ear, topical) | % MPO Inhibition in the Mouse Ear Inflammation Assay (4% concentration) ([5]; TPA-treated mouse ear, topical, 4% concentration, 24 hours) | MPO inhibition compared with another complex or AFC alone ([5]; mouse ear inflammation assay) | fold lower ED50 value for inhibiting neutrophil infiltration than the AFC oil ([5]; versus AFC oil) | EC50 (neutrophils) | IC50 (inhibition of P. acnes growth) ([1]; 72 hours, anaerobic, absorbance 600 nm, 1×10^6 CFU per mL) | MPO % Inhibition [6] | % Edema Inhibition in the Mouse Ear Inflammation Assay (4% concentration) [7] |
| --- | --- | --- | --- | --- | --- | --- | --- | --- | --- | --- | --- | --- | --- | --- |
| CC(=O)N[C@@H](CSC/C=C(\C)CC/C=C(\C)CCC=C(C)C)C(=O)[O-].[Ag+] [AFC-Silver complex, Silver (R)-2-acetamido-3-((2E,6E)-3,7,11-trimethyldodeca-2,6,10-trienylthio)propanoate] | 16.9 mg/L | enhanced light and air stability |  |  |  |  |  |  |  |  |  |  |  |  |
| CC(=O)N[C@@H](CSC/C=C(\C)CC/C=C(\C)CCC=C(C)C)C(=O)O [AFC-strontium complex, Strontium (R)-2-acetamido-3-((2E,6E)-3,7,11-trimethyldodeca-2,6,10-trienylthio)propanoate] |  |  | 21700 µM | more effective at decreasing edema than the calcium complex | +++ (“+++” indicates >40% inhibition of erythema) | 315 μg/ear | 5020 µM | +++ (“+++” indicates >80% inhibition of MPO) | improved MPO inhibition than the calcium complex | ~8 fold | 35.6 µM | 12.6 mg/L | +++ (“+++” indicates >40% inhibition) | +++ (“+++” indicates >50% inhibition of edema) |
